{
  "source": "paper PMC8635417",
  "about": "(Communications Biology, 2021)",
  "key": {"M2R [1]": {"tested_on": "M2R", "settings": "1 mM ligand, buffer exchange without ligand; cited from earlier work"}, "M2R [2]": {"biological_target": "T1, M2R (Homo sapiens, UniProt P08172)", "T1 construct": "expressed in transfected cells; host or cells: HEK293A", "T1 sequence (P08172 1-466)": "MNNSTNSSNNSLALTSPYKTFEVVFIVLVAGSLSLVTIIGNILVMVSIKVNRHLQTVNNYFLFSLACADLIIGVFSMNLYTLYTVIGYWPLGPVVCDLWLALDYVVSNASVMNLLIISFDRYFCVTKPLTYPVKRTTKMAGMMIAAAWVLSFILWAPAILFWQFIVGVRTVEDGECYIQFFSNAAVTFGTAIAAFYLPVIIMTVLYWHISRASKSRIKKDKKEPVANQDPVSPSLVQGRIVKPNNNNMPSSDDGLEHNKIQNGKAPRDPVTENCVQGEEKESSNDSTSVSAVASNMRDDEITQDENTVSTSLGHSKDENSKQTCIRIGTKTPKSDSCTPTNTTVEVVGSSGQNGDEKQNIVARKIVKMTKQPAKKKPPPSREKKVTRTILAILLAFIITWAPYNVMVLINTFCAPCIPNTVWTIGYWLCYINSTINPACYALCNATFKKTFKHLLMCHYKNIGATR", "assay": "NanoBiT G-protein dissociation assay (Gi activation)", "assay_type": "cell-based", "settings": "HEK293A cells expressing M2R and NanoBiT-Gi1; for Gi-protein activity relative to ACh (in words): Fig. 3a", "procedure": "M2R-induced G-protein dissociation was measured by a NanoBiT-G-protein dissociation assay, in which the interaction between a Gα subunit and a Gβγ subunit was monitored by the NanoBiT system (Promega). Specifically, a NanoBiT-Gi1 protein consisting of Gαi1 subunit fused with a large fragment (LgBiT) at the α-helical domain and an N-terminally small fragment (SmBiT)-fused Gγ2 subunit with a C68S mutation was expressed along with untagged Gβ1 subunit and M2R. HEK293A cells were seeded in a 10-cm culture dish at a concentration of 2 × 10^5 cells mL^−1 (10 mL per well in DMEM (Nissui) supplemented with 10% fetal bovine serum (Gibco), glutamine, penicillin, and streptomycin), 1 day before transfection. Transfection solution was prepared by combining 25 µL (per dish hereafter) of polyethylenimine (PEI) Max solution (1 mg mL^−1; Polysciences), 1 mL of Opti-MEM (Thermo Fisher Scientific), and a plasmid mixture consisting of 1 µg M2R (or an empty plasmid for mock transfection), 500 ng LgBiT-containing Gαi1 subunit, 2.5 µg Gβ1 subunit, and 2.5 µg SmBiT-fused Gγ2 subunit (C68S). After an incubation for 1 day, the transfected cells were harvested with 0.5 mM EDTA-containing Dulbecco’s PBS, centrifuged and suspended in 10 mL of HBSS containing 0.01% bovine serum albumin (BSA; fatty acid–free grade; SERVA) and 5 mM HEPES (pH 7.4) (assay buffer). The cell suspension was dispensed in a white 96-well plate at a volume of 80 µL per well and loaded with 20 µL of 50 µM coelenterazine (Carbosynth) diluted in the assay buffer. After a 2 h incubation at room temperature, the plate was measured for baseline luminescence (Spectramax L, Molecular Devices) and a titrated test ligand (20 µL; […] of final concentrations) was manually added. The plate was immediately read at room temperature for the following 5 min as a kinetics mode, at measurement intervals of 20 s. The luminescence counts over 3–5 min after ligand addition were averaged and normalized to the initial count. The fold-change values were further normalized to that of vehicle-treated samples and used to plot the G-protein dissociation response. Using the Prism 8 software (GraphPad Prism), the G-protein dissociation signals were fitted to a four-parameter sigmoidal concentration-response curve."}, "M2R [3]": {"tested_on": "M2R", "assay": "Ligand binding-induced difference ATR-FTIR spectroscopy, amide-I band", "design": "species or system human", "settings": "lipid-reconstituted M2R-BRIL, 293 K; for population of active-like M2R conformation from amide-I band ratio (in words): 1 mM ligand; for ligand efficacy class suggested by amide-I spectral features: H2O, compared with Scop- and NMS-bound spectra", "procedure": "Red and purple lines correspond to ACh- and Atro-bound spectra, respectively. To quantitatively examine the change in the amide-I band specific to ligand efficacy, the ratio between the band strength of (2)1656 (+)/(1)1666 (−) cm^−1 of ACh-bound spectra at high frequency and (2)1656 (+)/(3)1640 (−) cm^−1 of ACh-bound spectra at low frequency is calculated and reported as efficacy rate. b Ligand-dependent spectral changes of amide-I band originating from C=O stretch of α-helix in 1700–1620 cm^−1 region. Red, orange, and purple lines correspond to agonist-, partial agonist-, and antagonist-bound spectra, respectively. […] The error values were calculated from three replicate experiments. Cyan dotted line indicates the value = 1.\nThe ratio of the amide-I band was assumed to be the ligand efficacy (Fig. 2b, c). Strikingly, all agonists have an amide-I band ratio >1. The amide-I band ratio for both the partial agonists and the antagonists were <1, with the exception of Xano.\nA 2 μL aliquot of the lipid-reconstituted M2R suspensions was placed on the surface of a silicon ATR crystal (three internal total reflection, Smith Detection, UK. After it was dried in a gently natural drying, the sample was rehydrated with a solvent containing 200 mM phosphate (pH 7.5) buffer with 140 mM NaCl, 3 mM MgCl2 at a flow rate of 0.6 mL min^−1 through a flow cell, of which the temperature was maintained at 20 °C by circulating water. ATR-FTIR spectra were first recorded at 2 cm^−1 resolution, using an FTIR spectrometer (Bio-rad FTS7000, Agilent, CA, USA) equipped with a liquid nitrogen-cooled MCT detector (an average of 768 interferograms). After the FTIR spectrum had been recorded in the second buffer with 1 mM ligand, the difference FTIR spectrum was calculated by subtracting the data obtained for the first and second buffer. The cycling procedure was repeated two to seven times, and the difference spectra were calculated as the average of the presence minus absence spectra of ligand. The spectral contributions of the unbound ligand, the protein/lipid shrinkage, and water/buffer components were corrected (Supplementary Figure 2–5)."}, "M2R [4]": {"tested_on": "M2R", "design": "method as in PMID 23441648", "settings": "super agonist of M2R; cited from earlier work"}, "M2R [5]": {"tested_on": "M2R", "assay": "Ligand dissociation kinetics from time-course ATR-FTIR (amide-I band)", "assay_type": "binding, human", "settings": "1 mM ligand washed out by buffer exchange, 0.6 mL min-1, 20 °C; single exponential fit", "procedure": "Each ligand (1 mM concentration) is added at 30 min time point and is washed out at 90 min time point by exchanging to the buffer without ligand at a flow rate of 0.6 mL min^−1 through a flow cell, of which the temperature is maintained at 20 °C by circulating water. […] Ligand dissociation phase is highlighted by light blue. b Time trace of the integrated absorbance signal at dissociation phase in the amide-I band for each ligand. […] Dotted lines represent the fitting curve obtained by single exponential function.\nAfter the FTIR spectrum had been recorded in the second buffer with 1 mM ligand, the difference FTIR spectrum was calculated by subtracting the data obtained for the first and second buffer. The cycling procedure was repeated two to seven times, and the difference spectra were calculated as the average of the presence minus absence spectra of ligand. The spectral contributions of the unbound ligand, the protein/lipid shrinkage, and water/buffer components were corrected (Supplementary Figure 2–5).\nAll functional and statistical data were analyzed using GraphPad Prism v.9.0 (Graphpad Software) and shown as mean ± s.e.m. from at least three independent experiments. Dissociation kinetics curves were evaluated with a single exponential function."}},
  "data": [
    {"compound": "CC(=O)OCC[N+](C)(C)C", "note": "[ACh, acetylcholine]", "values": [
      {"measurement": "amide-I band intensity during dissociation phase after buffer exchange", "setting": "M2R [1]", "result": "decreased gradually"}
    ]},
    {"compound": "CN1[C@@H]2CC[C@H]1C[C@@H](OC(=O)C(CO)c1ccccc1)C2", "note": "(some centres unmarked) [Atro, atropine]", "values": [
      {"measurement": "amide-I band intensity during dissociation phase after buffer exchange", "setting": "M2R [1]", "result": "did not decrease"}
    ]},
    {"compound": "C[N+](C)(C)CCOC(N)=O", "note": "[Carb, Carbamylcholine]", "values": [
      {"measurement": "Gi-protein activity relative to ACh (in words)", "setting": "M2R [2]", "result": "almost identical Gi-protein activity as ACh"}
    ]},
    {"compound": "CC(C)[N+]1(C)[C@@H]2CC[C@H]1C[C@@H](OC(=O)C(CO)c1ccccc1)C2", "note": "(some centres unmarked) [Ipra, Ipratropium]", "values": [
      {"measurement": "population of active-like M2R conformation from amide-I band ratio (in words)", "setting": "M2R [3]", "result": "higher ratio of active conformation than Atro and Scop"},
      {"measurement": "Gi-dissociation activity (Emax normalized to ACh)", "setting": "M2R [2]; Span normalized to ACh", "result": "6.3 % of ACh"}
    ]},
    {"compound": "C[N+](C)(C)CC#CCOC1=NOCC1", "note": "[Ixo, Iperoxo]", "values": [
      {"measurement": "potency relative to ACh", "setting": "M2R [4]", "result": 100, "unit": "fold"},
      {"measurement": "dissociation kinetics (koff) from M2R (in words)", "setting": "M2R [5]", "result": "slowest dissociation kinetics"},
      {"measurement": "Gi-protein activity relative to ACh (in words)", "setting": "M2R [2]", "result": "higher G-protein activation than ACh"}
    ]},
    {"compound": "C[N+](C)(C)CC#CCOC(=O)Nc1cccc(Cl)c1", "note": "[McN, McN-A-343]", "values": [
      {"measurement": "dissociation kinetics (koff) from M2R (in words)", "setting": "M2R [5]", "result": "fast dissociation kinetics"},
      {"measurement": "Gi-protein activity relative to ACh (in words)", "setting": "M2R [2]", "result": "decreased Gi signalling relative to ACh"}
    ]},
    {"compound": "CC(=O)OC(C)C[N+](C)(C)C", "note": "(centres unmarked) [Meta, Metacholine]", "values": [
      {"measurement": "Gi-protein activity relative to ACh (in words)", "setting": "M2R [2]", "result": "almost identical Gi-protein activity as ACh"}
    ]},
    {"compound": "CCCC[N+]1(C)C2CC(OC(=O)C(CO)c3ccccc3)CC1C1OC12", "note": "(centres unmarked) [NBS, N-butylscopolamine]", "values": [
      {"measurement": "ligand efficacy class suggested by amide-I spectral features", "setting": "M2R [3]", "result": "antagonist"}
    ]},
    {"compound": "CC[N+]1(C)[C@@H]2CC(OC(=O)[C@H](CO)c3ccccc3)C[C@H]1[C@@H]1O[C@@H]12", "note": "(some centres unmarked) [Oxitro, Oxitropium]", "values": [
      {"measurement": "ligand efficacy class suggested by amide-I spectral features", "setting": "M2R [3]", "result": "inverse agonist"}
    ]},
    {"compound": "CN1[C@@H]2C[C@@H](OC(=O)[C@H](CO)c3ccccc3)C[C@H]1[C@@H]1O[C@@H]12", "note": "[Scop, Scopolamine]", "values": [
      {"measurement": "Gi-protein activity relative to ACh (in words)", "setting": "M2R [2]", "result": "undetectable"}
    ]},
    {"compound": "CCCCCCOc1nsnc1C1=CCCN(C)C1", "note": "[Xano, Xanomeline]", "values": [
      {"measurement": "population of active-like M2R conformation from amide-I band ratio (in words)", "setting": "M2R [3]", "result": "higher population of active-like M2R conformation"},
      {"measurement": "dissociation kinetics (koff) from M2R (in words)", "setting": "M2R [5]", "result": "extremely slow"},
      {"measurement": "Gi-protein activity relative to ACh (in words)", "setting": "M2R [2]", "result": "decreased Gi signalling relative to ACh"}
    ]}
  ]
}
